Key:
5-HT1A = 5-HT1A (Homo sapiens, UniProt P08908); test: InVEST radioligand filter binding, 5-HT1A; conditions: M13 20 μM, 100 = no effect
A2A adenosine = A2A adenosine (Homo sapiens, UniProt P29274); conditions: M13 20 μM, 100 = no effect
5-HT2A = 5-HT2A (Homo sapiens, UniProt P28223); test: InVEST radioligand filter binding, 5-HT2A; conditions: M13 20 μM, 100 = no effect
AHR-activation = target: T1, AHR-activation (Homo sapiens, UniProt P35869); test: InVEST fluorescence polarization binding/cell-based activity, AHR-activation; conditions: M13 20 μM, 100 = no effect
T1 sequence (P35869 11-848): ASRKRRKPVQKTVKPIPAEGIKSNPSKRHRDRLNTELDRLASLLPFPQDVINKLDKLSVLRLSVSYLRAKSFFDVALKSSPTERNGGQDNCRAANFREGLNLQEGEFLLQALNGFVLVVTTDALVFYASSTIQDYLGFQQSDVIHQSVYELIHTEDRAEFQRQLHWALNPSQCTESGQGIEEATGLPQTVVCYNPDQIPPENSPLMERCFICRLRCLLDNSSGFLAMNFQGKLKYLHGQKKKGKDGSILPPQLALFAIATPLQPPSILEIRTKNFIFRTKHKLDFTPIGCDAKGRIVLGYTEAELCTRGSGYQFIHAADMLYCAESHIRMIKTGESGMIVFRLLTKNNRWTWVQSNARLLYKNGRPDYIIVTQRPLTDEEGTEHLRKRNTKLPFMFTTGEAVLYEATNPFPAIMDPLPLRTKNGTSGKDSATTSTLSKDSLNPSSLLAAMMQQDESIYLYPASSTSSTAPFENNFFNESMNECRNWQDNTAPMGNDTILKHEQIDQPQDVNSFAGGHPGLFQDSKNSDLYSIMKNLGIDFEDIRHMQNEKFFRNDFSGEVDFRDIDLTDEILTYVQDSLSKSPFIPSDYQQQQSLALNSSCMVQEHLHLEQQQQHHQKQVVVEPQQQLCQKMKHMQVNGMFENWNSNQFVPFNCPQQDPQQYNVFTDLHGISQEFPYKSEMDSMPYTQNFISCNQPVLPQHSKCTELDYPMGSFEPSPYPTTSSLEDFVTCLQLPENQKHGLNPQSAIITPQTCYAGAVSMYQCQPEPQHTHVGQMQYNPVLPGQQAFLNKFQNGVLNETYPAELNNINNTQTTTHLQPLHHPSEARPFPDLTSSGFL

[1] = Metabolic stability with mouse intestinal microsomes; conditions: 30 min incubation, HPLC
CCK = target: T2, CCK (Homo sapiens, UniProt P32238); test: InVEST radioligand filter binding, CCK; conditions: CCK, M13 20 μM, 100 = no effect
T2 sequence (P32238 1-428): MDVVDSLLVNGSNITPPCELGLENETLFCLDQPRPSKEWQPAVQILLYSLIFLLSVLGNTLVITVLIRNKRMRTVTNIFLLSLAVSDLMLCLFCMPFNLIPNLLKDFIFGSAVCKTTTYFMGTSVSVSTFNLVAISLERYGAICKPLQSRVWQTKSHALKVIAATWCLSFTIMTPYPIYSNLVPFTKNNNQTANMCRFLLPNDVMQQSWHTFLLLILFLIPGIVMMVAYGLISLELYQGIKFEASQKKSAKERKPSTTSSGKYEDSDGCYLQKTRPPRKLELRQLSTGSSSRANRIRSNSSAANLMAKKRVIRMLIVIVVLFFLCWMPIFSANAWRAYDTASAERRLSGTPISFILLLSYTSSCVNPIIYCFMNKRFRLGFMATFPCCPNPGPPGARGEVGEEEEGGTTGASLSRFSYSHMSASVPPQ

Caco-2/BBe cells = test: MTT cytotoxicity, 2D Caco-2/BBe; conditions: 24 h

Chain of 5-HT1A (P08908 whole entry): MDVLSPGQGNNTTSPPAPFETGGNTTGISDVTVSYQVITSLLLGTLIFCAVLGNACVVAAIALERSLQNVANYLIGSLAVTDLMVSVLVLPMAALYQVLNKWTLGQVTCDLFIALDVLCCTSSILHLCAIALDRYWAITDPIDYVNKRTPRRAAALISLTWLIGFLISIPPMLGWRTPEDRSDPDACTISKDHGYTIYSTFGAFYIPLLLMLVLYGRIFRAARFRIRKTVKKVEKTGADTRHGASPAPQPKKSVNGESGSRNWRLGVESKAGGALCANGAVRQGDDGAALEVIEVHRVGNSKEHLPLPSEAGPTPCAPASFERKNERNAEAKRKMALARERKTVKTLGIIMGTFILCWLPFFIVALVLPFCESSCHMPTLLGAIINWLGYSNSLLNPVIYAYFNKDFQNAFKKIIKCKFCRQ
Chain of A2A adenosine (P29274 whole entry): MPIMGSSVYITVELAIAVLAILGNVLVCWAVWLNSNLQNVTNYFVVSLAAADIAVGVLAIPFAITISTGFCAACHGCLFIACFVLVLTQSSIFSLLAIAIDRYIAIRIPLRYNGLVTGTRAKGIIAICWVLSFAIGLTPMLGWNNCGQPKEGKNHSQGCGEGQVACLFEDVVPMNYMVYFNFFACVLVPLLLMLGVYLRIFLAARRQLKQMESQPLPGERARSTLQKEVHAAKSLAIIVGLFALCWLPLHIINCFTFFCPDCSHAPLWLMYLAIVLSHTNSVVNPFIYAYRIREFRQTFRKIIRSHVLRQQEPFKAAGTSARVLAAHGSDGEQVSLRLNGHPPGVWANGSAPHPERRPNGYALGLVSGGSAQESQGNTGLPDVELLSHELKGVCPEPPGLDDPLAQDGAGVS
Chain of 5-HT2A (P28223 whole entry): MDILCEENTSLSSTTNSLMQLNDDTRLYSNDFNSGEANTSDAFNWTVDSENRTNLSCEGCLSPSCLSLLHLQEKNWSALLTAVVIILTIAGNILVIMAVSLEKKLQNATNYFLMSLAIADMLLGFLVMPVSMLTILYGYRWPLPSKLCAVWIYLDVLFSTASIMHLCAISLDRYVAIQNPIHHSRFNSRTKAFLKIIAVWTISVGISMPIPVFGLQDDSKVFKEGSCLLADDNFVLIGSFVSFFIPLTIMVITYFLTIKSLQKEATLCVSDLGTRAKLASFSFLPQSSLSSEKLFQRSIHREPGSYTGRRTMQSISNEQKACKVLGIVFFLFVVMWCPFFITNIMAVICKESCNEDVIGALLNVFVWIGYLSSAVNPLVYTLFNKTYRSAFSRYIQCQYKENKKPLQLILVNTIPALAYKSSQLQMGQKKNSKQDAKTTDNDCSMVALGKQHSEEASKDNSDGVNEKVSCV

Question: For `CCCCCC(CC(=O)CCc1ccc(O)c(OC)c1)SC[C@H](NC(=O)CC[C@H](N)C(=O)O)C(=O)NCC(=O)O` (stereo partly shown) [M13, 5-glutathione-6-shogaol], which “% Activity Data 1” value (5-HT1A; repetition 1) is on record?
Answer: 102%

Question: What about the “% Activity Data 2” value (5-HT1A; repetition 2) of the same molecule?
Answer: 100%

Question: What about the “% Activity Data 1” value (A2A adenosine; repetition 1) of the same molecule?
Answer: 99%

Question: And the “% Activity Data 2” value (A2A adenosine; repetition 2)?
Answer: 100%

Question: What about the “% Activity Data 1” value (5-HT2A; repetition 1) of the same molecule?
Answer: 99%

Question: What about the “% Activity Data 2” value (5-HT2A; repetition 2) of the same molecule?
Answer: 98%

Question: And the “% Activity Data 1” value (AHR-activation; repetition 1)?
Answer: 100%

Question: And the “% Activity Data 2” value (AHR-activation; repetition 2)?
Answer: 101%

Question: And the “% of the input retained after incubation with mouse intestinal microsomes” value [1]?
Answer: 86%

Question: What about the “% Activity Data 1” value (CCK; repetition 1) of the same molecule?
Answer: 94%

Question: What about the “% Activity Data 2” value (CCK; repetition 2) of the same molecule?
Answer: 92%

Question: What about the “fold by which IC50 against HIEC-6 is higher than against Caco-2/BBe” value (Caco-2/BBe cells) of the same molecule?
Answer: 6 fold

Question: What about the IC50 (Caco-2/BBe cells; Caco-2/BBe) of the same molecule?
Answer: 16.7 µM

— article PMC10810011 (Expert opinion on drug delivery, 2023)
